Results: publication PMC12454493, “Insight on novel sulfamoylphenyl pyrazole derivatives as anticancer carbonic anhydrase inhibitors” (Molecular Diversity, 2024)

Key:
Assay type in all cases: cell-based
[1] = test system: NCI-H460; test: NCI-60 one-dose SRB screen (Non-Small Cell Lung Cancer); details: Homo sapiens, single dose 10 µM, 48 h, read-out: Growth inhibition percent (GI %)
Protocol: (§1) The National Cancer Institute (NCI) Developmental Therapeutic Program (www.dtp.nci.nih.gov) selected the 20 novel synthesized compounds 4a-e, 5a-e, 6a-c, 9a-e, 10 and 11 to test for their anticancer activity at a single dose of 10 µM using SRB assay. […] Supplementary Data S3; Table S1 presents the detailed screening results of the most promising compounds. The preliminary screening’s detailed results for the remaining compounds are elucidated in the (Supplementary Data S3; Table S2).
(§2) The guidelines of the Drug Evaluation Branch’s protocol at the NCI in Bethesda served as the basis for the in vitro anticancer screening assays. at one dose 10 µM against a panel of 60 cancer cell lines. The human tumor cell lines used belonged to nine panels: leukemia, melanoma, lung, colon, CNS, ovarian, renal, prostate and breast cancers using the sulforhodamine B (SRB) assay in a 48 h drug exposure protocol.

[2] = test system: NCI-H23; test: as above; details: Homo sapiens, single dose 10 µM, 48 h, read-out: Growth inhibition percent (GI %)
Protocol: as §1, §2

[3] = test system: NCI-H322M; test: as above; details: Homo sapiens, single dose 10 µM, 48 h, read-out: Growth inhibition percent (GI %)
Protocol: as §1, §2

[4] = test system: NCI-H226; test: as above; details: Homo sapiens, single dose 10 µM, 48 h, read-out: Growth inhibition percent (GI %)
Protocol: as §1, §2

[5] = test system: A549/ATCC; test: as above; details: Homo sapiens, single dose 10 µM, 48 h, read-out: Growth inhibition percent (GI %)
Protocol: as §1, §2

[6] = test system: HOP-62; test: as above; details: Homo sapiens, single dose 10 µM, 48 h, read-out: Growth inhibition percent (GI %)
Protocol: as §1, §2

[7] = test system: EKVX; test: as above; details: Homo sapiens, single dose 10 µM, 48 h, read-out: Growth inhibition percent (GI %)
Protocol: as §1, §2

[8] = test system: HOP-92; test: as above; details: Homo sapiens, single dose 10 µM, 48 h, read-out: Growth inhibition percent (GI %)
Protocol: as §1, §2

[9] = test system: NCI-H522; test: as above; details: Homo sapiens, single dose 10 µM, 48 h, read-out: Growth inhibition percent (GI %)
Protocol: as §1, §2

[10] = test system: SNB-75; test: NCI-60 one-dose SRB screen (CNS Cancer); details: Homo sapiens, single dose 10 µM, 48 h, read-out: Growth inhibition percent (GI %)
Protocol: as §1, §2

[11] = test system: SF-268; test: NCI-60 one-dose SRB screen (CNS Cancer); details: Homo sapiens, single dose 10 µM, 48 h, read-out: Growth inhibition percent (GI %)
Protocol: as §1, §2

[12] = test system: U251; test: NCI-60 one-dose SRB screen (CNS Cancer); details: Homo sapiens, U-251, single dose 10 µM, 48 h, read-out: Growth inhibition percent (GI %)
Protocol: as §1, §2

[13] = test system: SF-539; test: NCI-60 one-dose SRB screen (CNS Cancer); details: Homo sapiens, single dose 10 µM, 48 h, read-out: Growth inhibition percent (GI %)
Protocol: as §1, §2

[14] = test system: SNB-19; test: NCI-60 one-dose SRB screen (CNS Cancer); details: Homo sapiens, single dose 10 µM, 48 h, read-out: Growth inhibition percent (GI %)
Protocol: as §1, §2

[15] = test system: SF-295; test: NCI-60 one-dose SRB screen (CNS Cancer); details: Homo sapiens, single dose 10 µM, 48 h, read-out: Growth inhibition percent (GI %)
Protocol: as §1, §2

[16] = test system: MALME-3M; test: NCI-60 one-dose SRB screen (Melanoma); details: Homo sapiens, single dose 10 µM, 48 h, read-out: Growth inhibition percent (GI %)
Protocol: as §1, §2

[17] = test system: SK-MEL-2; test: NCI-60 one-dose SRB screen (Melanoma); details: Homo sapiens, single dose 10 µM, 48 h, read-out: Growth inhibition percent (GI %)
Protocol: as §1, §2

[18] = test system: M14; test: NCI-60 one-dose SRB screen (Melanoma); details: Homo sapiens, single dose 10 µM, 48 h, read-out: Growth inhibition percent (GI %)
Protocol: as §1, §2

[19] = test system: SK-MEL-28; test: NCI-60 one-dose SRB screen (Melanoma); details: Homo sapiens, single dose 10 µM, 48 h, read-out: Growth inhibition percent (GI %)
Protocol: as §1, §2

[20] = test system: UACC-257; test: NCI-60 one-dose SRB screen (Melanoma); details: Homo sapiens, single dose 10 µM, 48 h, read-out: Growth inhibition percent (GI %)
Protocol: as §1, §2

[21] = test system: LOX IMVI; test: NCI-60 one-dose SRB screen (Melanoma); details: Homo sapiens, single dose 10 µM, 48 h, read-out: Growth inhibition percent (GI %)
Protocol: as §1, §2

[22] = test system: UACC-62; test: NCI-60 one-dose SRB screen (Melanoma); details: Homo sapiens, single dose 10 µM, 48 h, read-out: Growth inhibition percent (GI %)
Protocol: as §1, §2

[23] = test system: MDA-MB-435; test: NCI-60 one-dose SRB screen (Melanoma); details: Homo sapiens, single dose 10 µM, 48 h, read-out: Growth inhibition percent (GI %)
Protocol: as §1, §2

[24] = test system: SK-MEL-5; test: NCI-60 one-dose SRB screen (Melanoma); details: Homo sapiens, single dose 10 µM, 48 h, read-out: Growth inhibition percent (GI %)
Protocol: as §1, §2

[25] = test system: HCT-116; test: NCI-60 one-dose SRB screen (Colon Cancer); details: Homo sapiens, single dose 10 µM, 48 h, read-out: Growth inhibition percent (GI %)
Protocol: as §1, §2

[26] = test system: COLO 205; test: NCI-60 one-dose SRB screen (Colon Cancer); details: Homo sapiens, single dose 10 µM, 48 h, read-out: Growth inhibition percent (GI %)
Protocol: as §1, §2

[27] = test system: KM12; test: NCI-60 one-dose SRB screen (Colon Cancer); details: Homo sapiens, single dose 10 µM, 48 h, read-out: Growth inhibition percent (GI %)
Protocol: as §1, §2

[28] = test system: HT29; test: NCI-60 one-dose SRB screen (Colon Cancer); details: Homo sapiens, HT-29, single dose 10 µM, 48 h, read-out: Growth inhibition percent (GI %)
Protocol: as §1, §2

[29] = test system: HCC-2998; test: NCI-60 one-dose SRB screen (Colon Cancer); details: Homo sapiens, single dose 10 µM, 48 h, read-out: Growth inhibition percent (GI %)
Protocol: as §1, §2

[30] = test system: SW-620; test: NCI-60 one-dose SRB screen (Colon Cancer); details: Homo sapiens, single dose 10 µM, 48 h, read-out: Growth inhibition percent (GI %)
Protocol: as §1, §2

Measured: inhibition at 10 µM

Cc1ccc(-c2nn(-c3ccc(S(N)(=O)=O)cc3)cc2C(=O)OCC(=O)Nc2ccc(S(N)(=O)=O)cc2)cc1 [Compound 4b, 2-Oxo-2-[(4-sulfamoylphenyl)amino] ethyl 1-(4-sulfamoylphenyl)-3-(p-tolyl)-1H-pyrazole-4-carboxylate]
5.42%: [20]
6.16%: [3]
20.3%: [13]
11.6%: [28]
25.6%: [9]
8.94%: [17]
10.3%: [11]
7.63%: [5]
< 5%: all other assays above
